Results from ChEMBL document CHEMBL1151603, “Unsymmetrically substituted guanidines as potent histamine H3-receptor antagonists” (Bioorg Med Chem Lett, 1994).

Experiments:
Histamine H3 receptor [1] = molecular target: T1, Histamine H3 receptor (Cavia porcellus, UniProt Q9JI35); experiment: Antagonistic activity for Histamine H3 receptor on electrically evoked guinea-pig ileum contraction; format: functional, tissue-based
Histamine H3 receptor [2] = molecular target: T1, Histamine H3 receptor; experiment: Antagonistic activity for Histamine H3 receptor binding in guinea pig

T1 sequence (Q9JI35 whole entry): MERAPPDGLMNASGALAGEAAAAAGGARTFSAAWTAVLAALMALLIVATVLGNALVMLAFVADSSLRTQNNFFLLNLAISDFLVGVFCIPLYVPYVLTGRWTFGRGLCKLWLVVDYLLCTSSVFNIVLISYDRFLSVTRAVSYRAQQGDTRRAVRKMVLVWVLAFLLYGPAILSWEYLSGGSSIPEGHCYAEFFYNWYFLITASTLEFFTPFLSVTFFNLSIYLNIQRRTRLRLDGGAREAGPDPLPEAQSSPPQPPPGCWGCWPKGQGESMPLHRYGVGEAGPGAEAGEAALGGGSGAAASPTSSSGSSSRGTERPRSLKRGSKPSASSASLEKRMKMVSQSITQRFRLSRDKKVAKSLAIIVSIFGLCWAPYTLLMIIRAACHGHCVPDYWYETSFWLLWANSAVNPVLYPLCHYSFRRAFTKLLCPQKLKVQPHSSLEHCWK

| Ki (Histamine H3 receptor [1]) [nM] | Ki (Histamine H3 receptor [2]) [nM] | Compound |
| --- | --- | --- |
| 6.31 | 7 | CC(C)(C)OC(=O)N/C(=N/C1CCCCC1)NCCCCc1c[nH]cn1 |
| 10 | 9.5 | CC(C)(C)OC(=O)N/C(=N/CC1CCCCC1)NCCCc1c[nH]cn1 |
| 0.794 | 0.74 | N=C(NCCCc1c[nH]cn1)NCC1CCCCC1 |
| 39.8 | 36 | CCOC(=O)N/C(=N/CC1CCCCC1)NCCCc1c[nH]cn1 |
| 12.6 | 13 | O=C(N/C(=N/CC1CCCCC1)NCCCc1c[nH]cn1)OCc1ccccc1 |
| 12.6 | 12 | CC(C)(C)OC(=O)N/C(=N\CCCc1c[nH]cn1)NCc1ccc(I)cc1 |
| 5.01 | 5.01 | N=C(NCCCCc1c[nH]cn1)NC1CCCCC1 |
| 20 | 22 | N#CN=C(NCCCc1cnc[nH]1)NCC1CCCCC1 |

| Compound | Ki (Histamine H3 receptor [1]) [nM] | Ki (Histamine H3 receptor [2]) [nM] |
| --- | --- | --- |
| N=C(NCCc1ccccc1)NCCc1cnc[nH]1 | 100 | 110 |
| S=C(NC1CCCCC1)N1CCC(c2cnc[nH]2)CC1 [THIOPERAMIDE] | 3.98 |  |
| N=C(NCCCc1c[nH]cn1)NCc1ccc(I)cc1 | 1.58 | 1.6 |
